Experimental data reported in ChEMBL document CHEMBL3885861, “Open TG-GATES”.

Species: Rattus norvegicus
Assay: Open TG-GATES - Regimen: Single
Type: toxicity, organism-based, Sprague-Dawley
Design: regimen Single, gender Male, age 6 weeks
Conditions: in vivo, po, 500 mg/kg, route gavage, dose level High; for APTT / Bas / Eos / Fbg / Hb / Ht / Lym / MCH / MCHC / MCV / Mono / Neu / PT / Plat / RBC / Ret / WBC: tissue Blood; for KIDNEY_TOTAL: tissue Kidney; for LIVER: tissue Liver; for A/G / ALP / ALT / AST / BUN / CRE / Ca / Cl / DBIL / GLC / IP / K / LDH / Na / PL / RALB / TBIL / TC / TG / TP / gamma-GTP: tissue Plasma

SMILES: CN(CCOc1ccc(CC2SC(=O)NC2=O)cc1)c1ccccn1.O=C(O)/C=C\C(=O)O (centres undefined) [ROSIGLITAZONE MALEATE]
- TERMINAL_BW (3 h): 202.9 g
- APTT (3 h): 16.4 s
- Bas (3 h): 0%
- Eos (3 h): 0.6%
- Fbg (3 h): 224.2 mg/dL
- Hb (3 h): 13 g/dL
- Ht (3 h): 39.4%
- Lym (3 h): 77.6%
- MCH (3 h): 21.2 pg
- MCHC (3 h): 33.1%
- MCV (3 h): 64.1 fL
- Mono (3 h): 7.8%
- Neu (3 h): 14.2%
- PT (3 h): 12.3 s
- Plat (3 h): 129.2 x10_4/uL
- RBC (3 h): 613.8 x10_4/ul
- Ret (3 h): 9.1%
- WBC (3 h): 85.4 x10_2/uL
- KIDNEY_TOTAL (3 h): 0.6 g
- LIVER (3 h): 8.9 g
- A/G (3 h): 2.3
- ALP (3 h): 1535.8 IU/L
- ALT (3 h): 35.8 IU/L
- AST (3 h): 69.6 IU/L
- BUN (3 h): 15 mg/dL
- CRE (3 h): 0.5 mg/dL
- Ca (3 h): 11.6 mg/dL
- Cl (3 h): 102.2 meq/L
- DBIL (3 h): 0.01 mg/dL
- GLC (3 h): 185.2 mg/dL
- IP (3 h): 10.5 mg/dL
- K (3 h): 4.2 meq/L
- LDH (3 h): 76.8 IU/L
- Na (3 h): 140.4 meq/L
- PL (3 h): 137 mg/dL
- RALB (3 h): 3.9 g/dL
- TBIL (3 h): 0.036 mg/dL
- TC (3 h): 84.2 mg/dL
- TG (3 h): 78 mg/dL
- TP (3 h): 5.6 g/dL
- gamma-GTP (3 h): 1 IU/L
- TERMINAL_BW (6 h): 206.5 g
- APTT (6 h): 16.5 s
- Bas (6 h): 0%
- Eos (6 h): 1%
- Fbg (6 h): 217 mg/dL
- Hb (6 h): 13.2 g/dL
- Ht (6 h): 40%
- Lym (6 h): 62.6%
- MCH (6 h): 21 pg
- MCHC (6 h): 32.9%
- MCV (6 h): 63.8 fL
- Mono (6 h): 11.6%
- Neu (6 h): 24.8%
- PT (6 h): 11.8 s
- Plat (6 h): 118.4 x10_4/uL
- RBC (6 h): 626.8 x10_4/ul
- Ret (6 h): 9.7%
- WBC (6 h): 75.4 x10_2/uL
- KIDNEY_TOTAL (6 h): 0.7 g
- LIVER (6 h): 8.6 g
- A/G (6 h): 2.4
- ALP (6 h): 1138.8 IU/L
- ALT (6 h): 30.8 IU/L
- AST (6 h): 69 IU/L
- BUN (6 h): 10 mg/dL
- CRE (6 h): 0.5 mg/dL
- Ca (6 h): 11 mg/dL
- Cl (6 h): 104 meq/L
- DBIL (6 h): 0.014 mg/dL
- GLC (6 h): 176.4 mg/dL
- IP (6 h): 10.6 mg/dL
- K (6 h): 4 meq/L
- LDH (6 h): 70.4 IU/L
- Na (6 h): 139.6 meq/L
- PL (6 h): 140.4 mg/dL
- RALB (6 h): 3.9 g/dL
- TBIL (6 h): 0.042 mg/dL
- TC (6 h): 89.2 mg/dL
- TG (6 h): 69.2 mg/dL
- TP (6 h): 5.5 g/dL
- gamma-GTP (6 h): 1 IU/L
- TERMINAL_BW (9 h): 203.4 g
- APTT (9 h): 17 s
- Bas (9 h): 0%
- Eos (9 h): 0.8%
- Fbg (9 h): 211.4 mg/dL
- Hb (9 h): 12.4 g/dL
- Ht (9 h): 37.6%
- Lym (9 h): 77.4%
- MCH (9 h): 21.5 pg
- MCHC (9 h): 33%
- MCV (9 h): 65.2 fL
- Mono (9 h): 5.2%
- Neu (9 h): 16.6%
- PT (9 h): 12.4 s
- Plat (9 h): 128.2 x10_4/uL
- RBC (9 h): 577 x10_4/ul
- Ret (9 h): 9.1%
- WBC (9 h): 77.4 x10_2/uL
- KIDNEY_TOTAL (9 h): 0.6 g
- LIVER (9 h): 7.9 g
- A/G (9 h): 2.6
- ALP (9 h): 1267.6 IU/L
- ALT (9 h): 28.2 IU/L
- AST (9 h): 65.4 IU/L
- BUN (9 h): 12 mg/dL
- CRE (9 h): 0.4 mg/dL
- Ca (9 h): 11.8 mg/dL
- Cl (9 h): 104.2 meq/L
- DBIL (9 h): 0.016 mg/dL
- GLC (9 h): 180.8 mg/dL
- IP (9 h): 10.9 mg/dL
- K (9 h): 4.6 meq/L
- LDH (9 h): 94.6 IU/L
- Na (9 h): 139.8 meq/L
- PL (9 h): 114.8 mg/dL
- RALB (9 h): 3.9 g/dL
- TBIL (9 h): 0.048 mg/dL
- TC (9 h): 63.6 mg/dL
- TG (9 h): 68.6 mg/dL
- TP (9 h): 5.4 g/dL
- gamma-GTP (9 h): 0.4 IU/L
- TERMINAL_BW (24 h): 222.1 g
- APTT (24 h): 16.4 s
- Bas (24 h): 0%
- Eos (24 h): 1.2%
- Fbg (24 h): 212.6 mg/dL
- Hb (24 h): 12.3 g/dL
- Ht (24 h): 37.6%
- Lym (24 h): 65.6%
- MCH (24 h): 21.3 pg
- MCHC (24 h): 32.7%
- MCV (24 h): 65.1 fL
- Mono (24 h): 8.4%
- Neu (24 h): 24.8%
- PT (24 h): 12.1 s
- Plat (24 h): 128.4 x10_4/uL
- RBC (24 h): 578.4 x10_4/ul
- Ret (24 h): 8.4%
- WBC (24 h): 96 x10_2/uL
- KIDNEY_TOTAL (24 h): 0.7 g
- LIVER (24 h): 10.3 g
- A/G (24 h): 2.7
- ALP (24 h): 1526.8 IU/L
- ALT (24 h): 34.6 IU/L
- AST (24 h): 65.2 IU/L
- BUN (24 h): 18 mg/dL
- CRE (24 h): 0.4 mg/dL
- Ca (24 h): 11.1 mg/dL
- Cl (24 h): 104.2 meq/L
- DBIL (24 h): 0.02 mg/dL
- GLC (24 h): 183.8 mg/dL
- IP (24 h): 7.9 mg/dL
- K (24 h): 4.6 meq/L
- LDH (24 h): 87.6 IU/L
- Na (24 h): 140.4 meq/L
- PL (24 h): 127 mg/dL
- RALB (24 h): 3.9 g/dL
- TBIL (24 h): 0.03 mg/dL
- TC (24 h): 70.2 mg/dL
- TG (24 h): 113.6 mg/dL
- TP (24 h): 5.3 g/dL
- gamma-GTP (24 h): 1 IU/L
